Source: patent US20250179028A1, “ACRYLAMIDE COMPOUNDS” (NRG THERAPEUTICS LTD, priority 2022, published 2025)

Legend:
mPTP = mPTP activity (Ca2+ retention) assay in isolated rat liver mitochondria; type: biochemical; conditions: isolated rat liver mitochondria; average value from multiple experiments (n ≥ 2)
Text: Pharmacological inhibition or modulation of the mPTP can be measured in well characterised ‘Ca^2+ retention’ assays performed in isolated mitochondria. In vitro isolated mitochondria rapidly sequester exogenous Ca^2+ until the intramitochondrial Ca^2+ concentration reaches the threshold for mPTP activation. Once the pore is activated, mitochondrial integrity is compromised and the stored Ca^2+ is released. The distribution of Ca^2+ between extra- and intra-mitochondrial compartments can be measured in real time with the use of membrane-impermeant Ca^2+ sensitive fluorescent dyes. Depending on the configuration of the assay, inhibition or modulation of the mPTP either delays the opening of the pore or increases the concentration of Ca^2+ required to induce mPTP opening.
MPTP activity was measured in mitochondria freshly isolated from female Sprague Dawley (250 to 300 gram) rat livers using the following method. Cervical dislocation was performed on the rat. The liver was then perfused in-situ with ˜40 ml cold Dulbecco's Phosphate Buffered Saline (DPBS) prior to dissection and transferred into 30 ml Isolation Buffer (250 mM Sucrose, 10 mM KCl, 1 mM EGTA, 1 mM EDTA, 25 mM HEPES, adjusted to pH 7.5 with 1 M NaOH). Each lobe of the liver was then removed from the buffer, minced using tweezers and a scalpel into ˜5 mm pieces then transferred into a 50 ml Potterton dounce homogenization tube on ice containing 30 ml ice-cold centrifugation buffer (300 mM Trehalose, 25 mM HEPES, 1 mM EGTA, 1 mM EDTA, 10 mM KCl, adjusted to pH 7.5 with 1 M NaOH and supplemented with 0.1% bovine serum albumin (BSA) and complete protease inhibitor cocktail (one tablet of inhibitor per 50 mls of buffer). Homogenisation was carried out using a teflon pestle at 1800 rpm. The slurry was centrifuged at 800 g for 10 min at 4° C., then the supernatant centrifuged at 10,000 g for 10 min. The pellet was washed once with FLIPR assay buffer (75 mM Mannitol, 25 mM Sucrose, 5 mM Potassium Phosphate Monobasic, 20 mM Tris base, 100 mM KCl, 0.1% BSA adjusted to pH 7.4 with 5M HCl) centrifuged again, then resuspended in FLIPR assay buffer to a concentration of 8.8 mg/ml protein.
Tested compounds (10 mM stock in DMSO) were serially diluted in DMSO in half log steps to generate 10 test concentrations (final concentrations in assay 30 μM to 1 nM). An intermediate dilution of 5 μl DMSO samples into 247 μl FLIPR assay buffer was carried out prior to transfer of 5 μl into duplicate wells of a 384 well polypropylene assay plate. Control wells were 0.5% (v/v) DMSO and 5 μM cyclosporin A.
A stock mitochondria/Fluo5N assay solution was prepared in 5.6 ml FLIPR assay buffer (at RT) supplemented with succinate disodium salt (10 mM), rotenone (1 μM), Fluo5N pentapotassium salt (2 μM) and 1 ml mitochondria suspension, then transferred (15 μl) into the assay plate containing test compounds and incubated for 10 min at RT. Assay plates were then transferred to a FLIPR Tetra plate reader (Molecular Devices). Dye fluorescence was then measured every 3 sec for a total of 10 min. After 12 sec, a 2.5 μl bolus of CaCl2 (75 μM) was added from a source plate containing 675 μM CaCl2 in FLIPR assay buffer. IC50 values for tested compounds were calculated using the fluorescence value collected at the 10 min timepoint with % inhibition calculated using the DMSO control and cyclosporin A values as […] respectively.

CYP2D6 = CYP2D6 (Homo sapiens (Human), UniProt P10635); assay: Cytochrome P450 CYP2D6 inhibition in human liver microsomes; type: in vitro ADME; conditions: probe dextromethorphan 2 µM (dextrorphan formation); 1 uM test compound, human liver microsomes; average value from two experiments; negative values = no effective inhibition
Description: Studies to assess tested compound mediated inhibition of cytochrome P450 enzyme isoform CYP2D6 were performed using human liver microsomes (BD Gentest) using either a single concentration (1 μM) of test compound or concentration response (0.1, 0.3, 1, 3, 10 and 30 μM) to derive an IC50. Tested compound solutions were prepared from 10 mM stocks in DMSO and diluted to 200 μM in DMSO. Reactions were prepared in a 96 deep well plate by combining 1 μl test compound with 179 μl reaction mixture (100 mM phosphate buffered saline (PBS), 0.2 mg/mL microsomes and 2 μM Dextromethorphan prepared from stocks as detailed below).
The positive control inhibitor, quinidine, was used at a final concentration of 0.5 μM when used at a single concentration. The final concentrations of quinidine used to derive an IC50 were 0, 0.1, 0.3, 1, 3, 10 and 30 μM. Plates were warmed at 37° C. for 15 min before starting reactions with 20 μl 10 mM NADPH solution in PBS and incubated for 20 min at 37° C. The assay is performed in duplicate. Reactions were quenched with 200 μl cold acetonitrile containing internal standards (200 nM labetalol, 200 nM alprazolam and 100 nM tolbutamide). The plate was centrifuged at 4000 rpm for 30 minutes, placed on ice for 20 minutes and then centrifuged at 4000 rpm for 30 minutes again to precipitate protein. 100 μL of the supernatant was transferred to a new plate and diluted with 100 μL pure water before being analysed using UPLC/MS/MS. The products of the transformation for dextromethorphan to dextrorphan was monitored by UPLC-MS/MS. The inhibition of CYP2D6 in human liver microsomes was measured as the percentage decrease in the activity of dextrorphan formation compared to non-inhibited controls (=100% activity). The IC50 value was calculated (test compound concentration which produces 50% inhibition) by using Excel Xlfit.

Chain of CYP2D6 (P10635 whole entry, canonical isoform): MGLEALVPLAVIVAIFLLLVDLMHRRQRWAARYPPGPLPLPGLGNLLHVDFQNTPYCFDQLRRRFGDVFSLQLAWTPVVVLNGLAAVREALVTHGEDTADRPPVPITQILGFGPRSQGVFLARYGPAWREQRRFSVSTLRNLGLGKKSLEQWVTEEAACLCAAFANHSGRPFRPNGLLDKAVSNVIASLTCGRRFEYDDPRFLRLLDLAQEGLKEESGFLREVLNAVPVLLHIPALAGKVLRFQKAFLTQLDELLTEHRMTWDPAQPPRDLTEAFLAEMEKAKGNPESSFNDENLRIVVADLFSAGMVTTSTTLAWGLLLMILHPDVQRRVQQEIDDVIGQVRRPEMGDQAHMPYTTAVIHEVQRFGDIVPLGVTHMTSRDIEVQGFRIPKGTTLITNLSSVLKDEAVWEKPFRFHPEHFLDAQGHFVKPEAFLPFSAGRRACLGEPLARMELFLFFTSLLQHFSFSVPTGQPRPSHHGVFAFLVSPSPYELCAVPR

SMILES	mPTP Rat liver pIC50 (mPTP)	inhibition at 20 min, 1 µM (CYP2D6) [%]
CC1Cc2ccccc2C1NC(=O)/C=C/c1ccc2c(C#N)n[nH]c2c1 (stereo not drawn) [Example 44, (E)-3-(3-cyano-1H-indazol-6-yl)-N-(2-methyl-2,3-dihydro-1H-inden-1-yl)acrylamide]	7.1	8.94
CCc1n[nH]c2cc(/C=C/C(=O)NC3CCc4ccccc43)ccc12 (stereo not drawn) [Example 32, (E)-N-(2,3-dihydro-1H-inden-1-yl)-3-(3-ethyl-1H-indazol-6-yl)acrylamide]	6.6	4.01
O=C(/C=C/c1ccc2oc(=O)[nH]c2c1)NC1CCc2ccccc21 (stereo not drawn) [Example 11, (E)-N-(2,3-dihydro-1H-inden-1-yl)-3-(2-oxo-2,3-dihydrobenzo[d]oxazol-5-yl)acrylamide]	6.1	-0.63
Cc1cccc(C)c1NC(=O)/C=C/c1ccc2c(C)n[nH]c2c1 [Example 31, (E)-N-(2,6-dimethylphenyl)-3-(3-methyl-1H-indazol-6-yl)acrylamide]	7.7	19.9
Cc1cc(NC(=O)/C=C/c2ccc3c(C)n[nH]c3c2)ccc1F [Example 41, (E)-N-(4-fluoro-3-methylphenyl)-3-(3-methyl-1H-indazol-6-yl)acrylamide]	7.1	1.2
Cc1n[nH]c2cc(/C=C/C(=O)NC3CCc4cc(F)ccc43)ccc12 (stereo not drawn) [Example 40, (E)-N-(5-fluoro-2,3-dihydro-1H-inden-1-yl)-3-(3-methyl-1H-indazol-6-yl)acrylamide]	6.6	6.65
Cc1ccc(NC(=O)/C=C/c2ccc3c(C)n[nH]c3c2)cc1F [Example 42, (E)-N-(3-fluoro-4-methylphenyl)-3-(3-methyl-1H-indazol-6-yl)acrylamide]	6.1	-1.97
Cc1cc(F)c(F)cc1NC(=O)/C=C/c1ccc2oc(=O)[nH]c2c1 [Example 16, (E)-N-(4,5-difluoro-2-methylphenyl)-3-(2-oxo-2,3-dihydrobenzo[d]oxazol-5-yl)acrylamide]	6.8	1.72
Cc1n[nH]c2cc(/C=C/C(=O)NC3CCc4ccccc43)cc(F)c12 (stereo not drawn) [Example 34, (E)-N-(2,3-dihydro-1H-inden-1-yl)-3-(4-fluoro-3-methyl-1H-indazol-6-yl)acrylamide]	6.7	4.37
Cc1n[nH]c2cc(/C=C/C(=O)N[C@@H]3CCCC[C@H]3C)ccc12 [Example 43, (E)-3-(3-methyl-1H-indazol-6-yl)-N-((1R,2R)-2-methylcyclohexyl)acrylamide]	6.3	–
Cc1c(F)cccc1NC(=O)/C=C/c1ccc2sc(=O)[nH]c2c1 [Example 2, (E)-N-(3-fluoro-2-methylphenyl)-3-(2-oxo-2,3-dihydrobenzo[d]thiazol-5-yl)acrylamide]	6.0	–
CC1CCc2ccccc2C1NC(=O)/C=C/c1ccc2c(c1)NC(=O)C2 (stereo not drawn) [Example 58]	5.5	–

The next lines start with the values.

mPTP Rat liver pIC50 (mPTP)	inhibition at 20 min, 1 µM (CYP2D6) [%]	SMILES
6.7	–	Cc1n[nH]c2cc(/C=C/C(=O)NC3c4ccccc4CCC3C)ccc12 (stereo not drawn) [Example 53, (E)-N-(2-methyl-1,2,3,4-tetrahydronaphthalen-1-yl)-3-(3-methyl-1H-indazol-6-yl)acrylamide]
5.8	–	O=C(/C=C/c1ccc2oc(=O)[nH]c2c1)NC1CCCc2ccccc21 (stereo not drawn) [Example 57, (E)-3-(2-oxo-2,3-dihydrobenzo[d]oxazol-5-yl)-N-(1,2,3,4-tetrahydronaphthalen-1-yl)acrylamide]
5.9	6.34	Cc1c(Cl)cccc1N(C)C(=O)/C=C/c1ccc2oc(=O)[nH]c2c1 [Example 48, (E)-N-(3-chloro-2-methylphenyl)-N-methyl-3-(2-oxo-2,3-dihydrobenzo[d]oxazol-5-yl)acrylamide]
6.3	–	CC1Cc2ccccc2C1NC(=O)/C=C/c1ccc2c(c1)[nH]c(=O)n2C (stereo not drawn) [Example 45, (E)-N-(2-methyl-2,3-dihydro-1H-inden-1-yl)-3-(1-methyl-2-oxo-2,3-dihydro-1H-benzo[d]imidazol-5-yl)acrylamide]
6.3	–	CC1Cc2ccccc2C1NC(=O)/C=C/c1ccc2oc(=O)[nH]c2c1 (stereo not drawn) [Example 46, (E)-N-(2-methyl-2,3-dihydro-1H-inden-1-yl)-3-(2-oxo-2,3-dihydrobenzo[d]oxazol-5-yl)acrylamide]
5.7	–	Cc1c(F)cc(F)cc1NC(=O)/C=C/c1ccc2c(c1)NC(=O)C2 [Example 60, (E)-N-(3,5-difluoro-2-methylphenyl)-3-(2-oxoindolin-6-yl)acrylamide]
5.6	–	O=C(/C=C/c1ccc2nn[nH]c2c1F)NC1CCc2ccccc21 (stereo not drawn) [Example 61, (E)-N-(2,3-dihydro-1H-inden-1-yl)-3-(7-fluoro-1H-benzo[d][1,2,3]triazol-6-yl)acrylamide]
6.9	–	Cc1n[nH]c2cc(/C=C/C(=O)NC3c4ccccc4OCC3C)ccc12 (stereo not drawn) [Example 52, (E)-3-(3-methyl-1H-indazol-6-yl)-N-(3-methylchroman-4-yl)acrylamide]
7.1	–	Cc1n[nH]c2cc(/C=C/C(=O)N[C@@H]3CCc4ccccc43)ccc12 [Example 55, (E)-N-(2,3-dihydro-1H-inden-1-yl)-3-(3-methyl-1H-indazol-6-yl)acrylamide]
4.9	–	Cc1ccc(Cl)cc1NC(=O)/C=C/c1ccc2oc(=O)[nH]c2c1 [Example 63, (E)-N-(5-chloro-2-methylphenyl)-3-(2-oxo-2,3-dihydrobenzo[d]oxazol-5-yl)acrylamide]
4.9	–	CC1CCCCC1NC(=O)/C=C/c1ccc2c(c1)NC(=O)C2 (stereo not drawn) [Example 64, (E)-N-(2-methylcyclohexyl)-3-(2-oxoindolin-6-yl)acrylamide]
5.6	–	O=C(/C=C/c1cc(F)c2nn[nH]c2c1)NC1CCc2ccccc21 (stereo not drawn) [Example 62, (E)-N-(2,3-dihydro-1H-inden-1-yl)-3-(4-fluoro-1H-benzo[d][1,2,3]triazol-6-yl)acrylamide]
5.5	–	O=C(/C=C/c1ccc2c(c1)NC(=O)C2)NC1CCc2ccccc21 (stereo not drawn) [Example 59, (E)-N-(2,3-dihydro-1H-inden-1-yl)-3-(2-oxoindolin-6-yl)acrylamide]
5.8	–	O=C(/C=C/c1ccc2oc(=O)[nH]c2c1)NC1CCOc2ccccc21 (stereo not drawn) [Example 56, (E)-N-(chroman-4-yl)-3-(2-oxo-2,3-dihydrobenzo[d]oxazol-5-yl)acrylamide]
